Test results taken from patent US10329294B2, “Pyrazolopyrimidine inhibitors of IRAK4 activity” (MERCK SHARP & DOHME CORP., priority 2015, dated 2019).
Counter-ions that a name gives are not always drawn.

Target: IRAK4 (Homo sapiens (Human), UniProt Q9NWZ3)
Test: IRAK4 Kinase Assay
Type: biochemical
Settings: IMAP fluorescence polarization, 0.5 nM GST tagged IRAK4, 100 μM ATP, 30 minutes at 25° C.; read-out: IRAK4 IC50

IRAK4, sequence (Q9NWZ3 whole entry): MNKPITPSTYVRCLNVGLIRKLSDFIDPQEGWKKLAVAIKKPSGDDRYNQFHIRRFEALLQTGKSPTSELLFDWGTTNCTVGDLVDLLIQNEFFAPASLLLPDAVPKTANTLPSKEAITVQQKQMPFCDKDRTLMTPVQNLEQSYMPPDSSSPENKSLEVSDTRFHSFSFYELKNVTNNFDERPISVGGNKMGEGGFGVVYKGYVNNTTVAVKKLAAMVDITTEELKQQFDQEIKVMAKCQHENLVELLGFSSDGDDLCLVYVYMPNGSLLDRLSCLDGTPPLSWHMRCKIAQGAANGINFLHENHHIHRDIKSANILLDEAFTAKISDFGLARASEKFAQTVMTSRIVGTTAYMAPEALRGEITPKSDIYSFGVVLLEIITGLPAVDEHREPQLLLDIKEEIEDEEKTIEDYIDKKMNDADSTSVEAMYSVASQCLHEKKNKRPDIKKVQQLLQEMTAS

| SMILES | IC50 [µM] |
| --- | --- |
| Cn1cc(NC(=O)c2cnn3ccc(N[C@@H]4CNCC[C@@H]4F)nc23)c(C(F)(F)F)n1 (single isomer, unassigned) [Example 230, 5-{[(3R,4S)- or (3S,4R)-4-fluoropiperidin-3-yl]amino}-N-[1-methyl-3-(trifluoromethyl)-1H-pyrazol-4-yl]pyrazolo[1,5-a]pyrimidine-3-carboxamide] | 0.0005 |
| Cn1cc(NC(=O)c2cnn3ccc(N[C@H]4CNCC[C@H]4F)nc23)c(C(F)(F)F)n1 (single isomer, unassigned) [Example 231, 5-{[(3R,4S)- or (3S,4R)-4-fluoropiperidin-3-yl]amino}-N-[1-methyl-3-(trifluoromethyl)-1H-pyrazol-4-yl]pyrazolo[1,5-a]pyrimidine-3-carboxamide] | 0.047 |
| Cn1cc(NC(=O)c2cnn3ccc(N[C@@H]4CNCC[C@H]4F)nc23)c(C(F)(F)F)n1 (single isomer, unassigned) [Example 232, 5-{[(3R,4R)- or (3S,4S)-4-fluoropiperidin-3-yl]amino}-N-[1-methyl-3-(trifluoromethyl)-1H-pyrazol-4-yl]pyrazolo[1,5-a]pyrimidine-3-carboxamide] | 0.013 |
| Cn1cc(NC(=O)c2cnn3ccc(N[C@H]4CNCC[C@@H]4F)nc23)c(C(F)(F)F)n1 (single isomer, unassigned) [Example 233, 5-{[(3R,4R)- or (3S,4S)-4-fluoropiperidin-3-yl]amino}-N-[1-methyl-3-(trifluoromethyl)-1H-pyrazol-4-yl]pyrazolo[1,5-a]pyrimidine-3-carboxamide] | 0.0005 |
| Cn1cc(NC(=O)c2cnn3ccc(NC4CNCCC4F)nc23)c(C(F)F)n1 (single isomer, unassigned) [Example 234, N-[3-(difluoromethyl)-1-methyl-1H-pyrazol-4-yl]-5-[(3R or S, 4R or S-4-fluoropiperidin-3-yl)amino]pyrazolo[1,5-a]pyrimidine-3-carboxamide] | 0.005 |
| Cn1cc(NC(=O)c2cnn3ccc(N[C@H]4CNCC(F)(F)C4)nc23)c(C(F)F)n1 (single isomer, unassigned) [Example 235, N-[3-(difluoromethyl)-1-methyl-1H-pyrazol-4-yl]-5-{[(3S)- or (3R)-5,5-difluoropiperidin-3-yl]amino}pyrazolo[1,5-a]pyrimidine-3-carboxamide] | 0.0007 |
| Cn1cc(NC(=O)c2cnn3ccc(NC4CNCCC4F)nc23)c(C(F)F)n1 (single isomer, unassigned) [Example 236, N-[3-(difluoromethyl)-1-methyl-1H-pyrazol-4-yl]-5-[(3R or S, 4R or S-4-fluoropiperidin-3-yl)amino]pyrazolo[1,5-a]pyrimidine-3-carboxamide] | 0.0006 |
| Cn1cc(NC(=O)c2cnn3ccc(NC4CNCCC4F)nc23)c(C(F)F)n1 (single isomer, unassigned) [Example 237, N-[3-(difluoromethyl)-1-methyl-1H-pyrazol-4-yl]-5-[(3R or S, 4R or S-4-fluoropiperidin-3-yl)amino]pyrazolo[1,5-a]pyrimidine-3-carboxamide] | 0.0006 |
| Cn1cc(NC(=O)c2cnn3ccc(N4C[C@@H]5CNC[C@H]4C5)nc23)c(C(F)F)n1 (single isomer, unassigned) [Example 239, 5-[(1S,5R)- or (1R,5S)-3,6-diazabicyclo[3.2.1]oct-6-yl]-N-[3-(difluoromethyl)-1-methyl-1H-pyrazol-4-yl]pyrazolo[1,5-a]pyrimidine-3-carboxamide] | 0.003 |
| Cn1cc(NC(=O)c2cnn3ccc(N4C[C@H]5CNC[C@@H]4C5)nc23)c(C(F)F)n1 (single isomer, unassigned) [Example 240, 5-[(1S,5R)- or (1R,5S)-3,6-diazabicyclo[3.2.1]oct-6-yl]-N-[3-(difluoromethyl)-1-methyl-1H-pyrazol-4-yl]pyrazolo[1,5-a]pyrimidine-3-carboxamide] | 0.043 |
| Cn1cc(NC(=O)c2cnn3ccc(NC4CNCCC4F)nc23)c(C(F)F)n1 (single isomer, unassigned) [Example 241, N-[3-(difluoromethyl)-1-methyl-1H-pyrazol-4-yl]-5-[(3R or S, 4R or S-4-fluoropiperidin-3-yl)amino]pyrazolo[1,5-a]pyrimidine-3-carboxamide] | 0.003 |
| Cn1cc(NC(=O)c2cnn3ccc(N[C@H]4CNCCC4(F)F)nc23)c(C(F)F)n1 (single isomer, unassigned) [Example 242, N-[(R or S)-3-(difluoromethyl)-1-methyl-1H-pyrazol-4-yl]-5-[(4,4-difluoropiperidin-3-yl)amino]pyrazolo[1,5-a]pyrimidine-3-carboxamide trifluoroacetate] | 0.002 |
| Cn1cc(NC(=O)c2cnn3ccc(N[C@H]4CNCCC4(F)F)nc23)c(C(F)(F)F)n1 (single isomer, unassigned) [Example 243, 5-[(R or S)-(4,4-difluoropiperidin-3-yl)amino]-N-[1-methyl-3-(trifluoromethyl)-1H-pyrazol-4-yl]pyrazolo[1,5-a]pyrimidine-3-carboxamide trifluoroacetate] | 0.0005 |
| Cn1cc(NC(=O)c2cnn3ccc(N[C@H]4CNCCC4(F)F)nc23)c(C(F)F)n1 (single isomer, unassigned) [Example 244, N-[(R or S)-3-(difluoromethyl)-1-methyl-1H-pyrazol-4-yl]-5-[(4,4-difluoropiperidin-3-yl)amino]pyrazolo[1,5-a]pyrimidine-3-carboxamide trifluoroacetate] | 0.0005 |
| Cn1cc(NC(=O)c2cnn3ccc(N[C@H]4CNCCC4(F)F)nc23)c(C(F)(F)F)n1 (single isomer, unassigned) [Example 245, 5-[(R or S)-(4,4-difluoropiperidin-3-yl)amino]-N-[1-methyl-3-(trifluoromethyl)-1H-pyrazol-4-yl]pyrazolo[1,5-a]pyrimidine-3-carboxamide trifluoroacetate] | 0.008 |
| Cn1cc(NC(=O)c2cnn3ccc(NC4CCCCC4)nc23)cn1 [Example 3, 5-(cyclohexylamino)-N-(1-methyl-1H-pyrazol-4-yl)pyrazolo[1,5-a]pyrimidine-3-carboxamide trifluoroacetate] | 0.237 |
| Cn1cc(NC(=O)c2cnn3ccc(N4CCN(CC5CC5)CC4)nc23)c(C(F)(F)F)n1 [Example 6, 5-[4-(cyclopropylmethyl)piperazin-1-yl]-N-[1-methyl-3-(trifluoromethyl)-1H-pyrazol-4-yl]pyrazolo[1,5-a]pyrimidine-3-carboxamide] | 0.681 |
| Cn1cc(NC(=O)c2cnn3ccc(NC4CCNCC4)nc23)c(C(F)(F)F)n1 [Example 7, N-[1-methyl-3-(trifluoromethyl)-1H-pyrazol-4-yl]-5-(piperidin-4-ylamino)pyrazolo[1,5-a]pyrimidine-3-carboxamide trifluoroacetate] | 0.039 |
| Cn1cc(NC(=O)c2cnn3ccc(N4CCCNCC4)nc23)c(C(F)(F)F)n1 [Example 8, 5-(1,4-diazepan-1-yl)-N-[1-methyl-3-(trifluoromethyl)-1H-pyrazol-4-yl]pyrazolo[1,5-a]pyrimidine-3-carboxamide trifluoroacetate] | 0.066 |
| Cn1cc(NC(=O)c2cnn3ccc(N[C@@H]4CCCNC4)nc23)c(C(F)(F)F)n1 [Example 9, N-[1-methyl-3-(trifluoromethyl)-1H-pyrazol-4-yl]-5-[(3R)-piperidin-3-ylamino]pyrazolo[1,5-a]pyrimidine-3-carboxamide trifluoroacetate] | 0.0005 |
| CCN1CCCN(c2ccn3ncc(C(=O)Nc4cn(C)nc4C(F)(F)F)c3n2)CC1 [Example 10, 5-(4-ethyl-1,4-diazepan-1-yl)-N-[1-methyl-3-(trifluoromethyl)-1H-pyrazol-4-yl]pyrazolo[1,5-a]pyrimidine-3-carboxamide] | 1.1 |
| Cn1cc(NC(=O)c2cnn3ccc(N4CC5CCC4CN5)nc23)c(C(F)(F)F)n1 (stereo not shown) [Example 11, 5-(2,5-diazabicyclo[2.2.2]oct-2-yl)-N-[1-methyl-3-(trifluoromethyl)-1H-pyrazol-4-yl]pyrazolo[1,5-a]pyrimidine-3-carboxamide hydrochloride] | 0.028 |
| Cn1cc(NC(=O)c2cnn3ccc(NC4CCCCNC4)nc23)c(C(F)(F)F)n1 (stereo not shown) [Example 12, 5-(azepan-3-ylamino)-N-[1-methyl-3-(trifluoromethyl)-1H-pyrazol-4-yl]pyrazolo[1,5-a]pyrimidine-3-carboxamide hydrochloride] | 0.006 |
| Cn1cc(NC(=O)c2cnn3ccc(N4CC5CC4CN5)nc23)c(C(F)(F)F)n1 (stereo not shown) [Example 13, 5-(2,5-diazabicyclo[2.2.1]hept-2-yl)-N-[1-methyl-3-(trifluoromethyl)-1H-pyrazol-4-yl]pyrazolo[1,5-a]pyrimidine-3-carboxamide hydrochloride] | 0.179 |
| Cn1cc(NC(=O)c2cnn3ccc(N4CCNCC5(CC5)C4)nc23)c(C(F)(F)F)n1 [Example 14, 5-(5,8-diazaspiro[2.6]non-5-yl)-N-[1-methyl-3-(trifluoromethyl)-1H-pyrazol-4-yl]pyrazolo[1,5-15a]pyrimidine-3-carboxamide trifluoroacetate] | 0.016 |
| Cn1cc(NC(=O)c2cnn3ccc(N4CCNC(C(F)(F)F)C4)nc23)c(C(F)(F)F)n1 (stereo not shown) [Example 15, N-[1-methyl-3-(trifluoromethyl)-1H-pyrazol-4-yl]-5-(3-(trifluoromethyl)piperazin-1-yl]pyrazolo[1,5-a]pyrimidine-3-carboxamide] | 0.113 |
| Cn1cc(NC(=O)c2cnn3ccc(N4CCNC(C(F)F)C4)nc23)c(C(F)(F)F)n1 (stereo not shown) [Example 16, 5-[3-(difluoromethyl)piperazin-1-yl]-N-[1-methyl-3-(trifluoromethyl)-1H-pyrazol-4-yl]pyrazolo[1,5-a]pyrimidine-3-carboxamide formate] | 0.049 |
| Cn1cc(NC(=O)c2cnn3ccc(NC4CCCNCC4)nc23)c(C(F)(F)F)n1 (stereo not shown) [Example 17, 5-(azepan-4-ylamino)-N-[1-methyl-3-(trifluoromethyl)-1H-pyrazol-4-yl]pyrazolo[1,5-a]pyrimidine-3-carboxamide hydrochloride] | 0.014 |
